Results as given in ChEMBL document CHEMBL4371054, “Dual inhibition of Kif15 by oxindole and quinazolinedione chemical probes” (Bioorg Med Chem Lett, 2019).
Calls of active or inactive are those of the source. The rule behind the calls is not given here.

Key:
[1] = biological target: T1, Kinesin-like protein KIF15 (Homo sapiens) (UniProt Q9NS87); test: Inhibition of Kif15 in TP53-deficient human RPE1 cells assessed as reduction in Kif15 level at 25 uM after 24 hrs by Western blot analysis relative to control
T1 sequence (whole entry): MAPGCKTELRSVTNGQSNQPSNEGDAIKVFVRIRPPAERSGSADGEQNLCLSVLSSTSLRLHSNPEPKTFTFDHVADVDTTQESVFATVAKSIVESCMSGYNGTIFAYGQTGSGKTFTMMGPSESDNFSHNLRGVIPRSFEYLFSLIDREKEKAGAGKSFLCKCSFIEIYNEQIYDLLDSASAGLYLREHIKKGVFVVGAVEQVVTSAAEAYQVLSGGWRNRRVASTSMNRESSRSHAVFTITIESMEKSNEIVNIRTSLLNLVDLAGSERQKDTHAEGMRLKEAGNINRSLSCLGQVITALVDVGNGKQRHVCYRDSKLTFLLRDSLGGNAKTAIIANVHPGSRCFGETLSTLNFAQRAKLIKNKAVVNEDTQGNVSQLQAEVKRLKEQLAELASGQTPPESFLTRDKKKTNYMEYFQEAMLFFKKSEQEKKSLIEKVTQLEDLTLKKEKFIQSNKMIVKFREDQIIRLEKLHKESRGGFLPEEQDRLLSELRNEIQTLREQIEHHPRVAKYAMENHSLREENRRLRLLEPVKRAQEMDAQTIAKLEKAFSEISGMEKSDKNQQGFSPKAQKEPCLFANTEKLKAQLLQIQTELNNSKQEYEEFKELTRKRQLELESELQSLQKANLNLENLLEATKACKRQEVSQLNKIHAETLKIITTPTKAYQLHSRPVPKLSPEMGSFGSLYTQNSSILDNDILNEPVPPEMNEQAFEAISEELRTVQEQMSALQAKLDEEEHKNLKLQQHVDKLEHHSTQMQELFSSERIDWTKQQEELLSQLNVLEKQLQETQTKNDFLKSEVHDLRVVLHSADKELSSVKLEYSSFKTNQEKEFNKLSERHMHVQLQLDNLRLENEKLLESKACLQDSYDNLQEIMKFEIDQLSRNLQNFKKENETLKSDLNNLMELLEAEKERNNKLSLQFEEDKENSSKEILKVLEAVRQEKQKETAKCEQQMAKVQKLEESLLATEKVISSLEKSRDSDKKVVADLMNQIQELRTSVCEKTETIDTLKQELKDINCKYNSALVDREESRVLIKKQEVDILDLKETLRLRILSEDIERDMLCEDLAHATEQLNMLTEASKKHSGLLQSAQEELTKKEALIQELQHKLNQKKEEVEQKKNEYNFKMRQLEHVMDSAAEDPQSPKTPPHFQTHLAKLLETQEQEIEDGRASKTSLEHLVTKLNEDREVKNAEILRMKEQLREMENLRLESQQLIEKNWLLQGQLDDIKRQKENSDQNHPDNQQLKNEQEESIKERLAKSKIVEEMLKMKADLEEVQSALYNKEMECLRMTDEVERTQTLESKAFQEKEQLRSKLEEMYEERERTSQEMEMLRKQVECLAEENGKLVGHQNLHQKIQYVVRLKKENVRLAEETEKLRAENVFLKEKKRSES

[2] = biological target: T1, Kinesin-like protein KIF15 (Homo sapiens); test: Inhibition of Kif15 in TP53-deficient human RPE1 cells assessed as cells with bipolar pre-anaphase microtubule structure at 25 uM after 24 hrs by Hoechst 33342 staining based immunofluorescence microscopic analysis (reference value: 90 to 94%); design: scale not given: the % may be the effect or the level left
[3] = biological target: T1, Kinesin-like protein KIF15 (Homo sapiens); test: Inhibition of Kif15 in TP53-deficient human RPE1 cells assessed as effect on spindle length at 25 uM after 24 hrs by Hoechst 33342 staining based immunofluorescence microscopic analysis (reference value: 11.4 +/- 0.2 um)
[4] = biological target: T2, Kinesin-like protein KIF11 (Homo sapiens) (UniProt P52732); test: Inhibition of Eg5 (unknown origin) assessed as reduction in Alexa-594 labelled microtubule gliding at 30 uM measured every 2 secs for 20 secs by epifluorescence microscopic analysis relative to control
T2 sequence (whole entry): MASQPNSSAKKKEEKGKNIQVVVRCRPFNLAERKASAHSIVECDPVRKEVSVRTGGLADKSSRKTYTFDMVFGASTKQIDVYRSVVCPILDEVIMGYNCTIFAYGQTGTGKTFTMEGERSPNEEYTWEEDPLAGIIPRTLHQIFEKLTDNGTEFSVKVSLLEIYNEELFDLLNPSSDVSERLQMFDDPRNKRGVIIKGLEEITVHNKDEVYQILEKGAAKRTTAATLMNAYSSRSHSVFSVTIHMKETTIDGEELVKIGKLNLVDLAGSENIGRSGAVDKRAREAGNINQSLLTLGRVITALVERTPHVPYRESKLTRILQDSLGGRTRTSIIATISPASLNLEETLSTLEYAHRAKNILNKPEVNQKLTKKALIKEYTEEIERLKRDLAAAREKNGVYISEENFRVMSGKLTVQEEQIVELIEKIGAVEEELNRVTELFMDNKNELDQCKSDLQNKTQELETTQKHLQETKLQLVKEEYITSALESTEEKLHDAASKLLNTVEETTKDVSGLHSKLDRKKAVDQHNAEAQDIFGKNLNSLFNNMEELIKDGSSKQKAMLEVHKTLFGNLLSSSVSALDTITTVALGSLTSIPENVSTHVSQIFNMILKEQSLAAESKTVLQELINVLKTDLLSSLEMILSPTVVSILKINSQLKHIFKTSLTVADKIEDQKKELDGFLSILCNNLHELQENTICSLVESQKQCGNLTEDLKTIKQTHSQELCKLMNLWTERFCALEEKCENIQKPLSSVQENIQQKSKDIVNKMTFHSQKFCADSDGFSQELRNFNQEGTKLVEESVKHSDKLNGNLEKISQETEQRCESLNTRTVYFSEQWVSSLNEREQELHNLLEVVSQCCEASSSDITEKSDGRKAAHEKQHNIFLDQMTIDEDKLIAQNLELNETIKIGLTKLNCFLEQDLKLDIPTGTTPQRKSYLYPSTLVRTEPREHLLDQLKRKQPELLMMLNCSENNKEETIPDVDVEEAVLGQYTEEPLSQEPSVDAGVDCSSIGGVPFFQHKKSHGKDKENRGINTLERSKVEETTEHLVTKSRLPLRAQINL

[5] = biological target: T3, Kinesin-like protein KIF15 (Homo sapiens, UniProt Q9NS87); test: Inhibition of recombinant His6-tagged Kif15 (N700 residues) (unknown origin) expressed in HeLa cells assessed as reduction in Alexa-594 labelled microtubule gliding measured every 2 secs for 20 secs by epifluorescence microscopic analysis; type: cell-based
T3 sequence (Q9NS87 whole entry): T1 sequence (whole entry)

[6] = biological target: T1, Kinesin-like protein KIF15 (Homo sapiens); test: Inhibition of Kif15 in K51-resistant human KIRC1 cells assessed as increase in cells with monopolar spindles after 24 hrs by Hoechst 33342 staining based immunofluorescence microscopic analysis

O=C1Nc2ccc(C(=O)c3ccco3)cc2/C1=C/c1cc(Cl)c(O)c(Cl)c1
inhibition [1]: 60%
Activity [2]: 84%
inhibition [3]: inactive
inhibition [4]: 19.8%
IC50 [5]: 0.75 µM
inhibition [6]: Dose-dependent effect
